What was measured:
[1] = molecular target: Carbonic anhydrase 5A, mitochondrial (Homo sapiens, UniProt P35218)
Carbonic anhydrase 1 = Carbonic anhydrase 1 (Homo sapiens, UniProt P00915)
[2] = molecular target: Carbonic anhydrase 5B, mitochondrial (Homo sapiens, UniProt Q9Y2D0)
Carbonic anhydrase 2 = Carbonic anhydrase 2 (Homo sapiens, UniProt P00918)

Carbonic anhydrase 5B, mitochondrial, sequence (Q9Y2D0 whole entry): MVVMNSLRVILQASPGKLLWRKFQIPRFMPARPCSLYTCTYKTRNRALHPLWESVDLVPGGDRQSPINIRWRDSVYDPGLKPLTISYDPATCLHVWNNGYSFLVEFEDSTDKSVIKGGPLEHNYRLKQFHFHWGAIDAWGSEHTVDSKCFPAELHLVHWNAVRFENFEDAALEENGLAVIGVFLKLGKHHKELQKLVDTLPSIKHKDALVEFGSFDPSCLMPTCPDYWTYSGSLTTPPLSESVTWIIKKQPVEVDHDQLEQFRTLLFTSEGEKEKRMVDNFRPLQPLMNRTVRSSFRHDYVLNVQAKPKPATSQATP
Carbonic anhydrase 5A, mitochondrial, sequence (P35218 whole entry): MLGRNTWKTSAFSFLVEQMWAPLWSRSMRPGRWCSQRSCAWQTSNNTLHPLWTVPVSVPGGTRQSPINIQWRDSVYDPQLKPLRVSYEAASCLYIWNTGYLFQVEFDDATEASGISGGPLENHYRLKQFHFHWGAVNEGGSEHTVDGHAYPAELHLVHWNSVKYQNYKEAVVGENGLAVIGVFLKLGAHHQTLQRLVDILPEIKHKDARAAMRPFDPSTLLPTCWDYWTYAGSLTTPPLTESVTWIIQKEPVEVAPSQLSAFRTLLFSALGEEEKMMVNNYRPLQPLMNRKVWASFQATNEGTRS
Carbonic anhydrase 1, sequence (P00915 whole entry): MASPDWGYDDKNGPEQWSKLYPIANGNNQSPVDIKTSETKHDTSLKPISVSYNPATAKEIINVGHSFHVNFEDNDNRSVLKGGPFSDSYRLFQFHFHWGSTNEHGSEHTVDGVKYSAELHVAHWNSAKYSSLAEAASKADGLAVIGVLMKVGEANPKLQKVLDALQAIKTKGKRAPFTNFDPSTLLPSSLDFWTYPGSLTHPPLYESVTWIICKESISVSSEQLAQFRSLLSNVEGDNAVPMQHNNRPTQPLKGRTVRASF

Ki [1]	Ki (Carbonic anhydrase 1)	Ki [2]	Ki (Carbonic anhydrase 2)	SMILES
12.8 nM	2100 nM	10.6 nM	–	Cc1ccc(-c2cn(-c3ccc(S(N)(=O)=O)cc3)nn2)cc1
14.2 nM	4600 nM	11.2 nM	40.3 nM	NS(=O)(=O)c1ccc(-n2cc(-c3ccc(F)cc3)nn2)cc1
10.6 nM	2200 nM	51.8 nM	8.4 nM	COc1ccc(-c2cn(-c3ccc(S(N)(=O)=O)cc3)nn2)cc1
17.8 nM	5100 nM	10.6 nM	–	NS(=O)(=O)c1ccc(-n2cc(-c3ccccc3)nn2)cc1

Source: ChEMBL document CHEMBL1155919, “Inhibition of human mitochondrial carbonic anhydrases VA and VB with para-(4-phenyltriazole-1-yl)-benzenesulfonamide derivatives” (Bioorg Med Chem Lett, 2008)
